Ends that are not written are not given here.
Tested on: db/db mice
Assay: db/db mice model of type 2 diabetes, chronic treatment
Type: in vivo, mouse
Description: The aim was to determine the activity of IB(s) peptides and all-D retro-inverso IB(s) peptides and variants thereof in the treatment of Diabetes Type 2, particularly to determine the effect of chronic treatment with XG-102 (SEQ ID NO: 233) in the db/db mice model of type 2 diabetes by evaluating fasting blood glucose levels every third day (28 days)
a) Materials and Methods • i) Animals • A total of twenty (20) male db/db mice (8 weeks old) were obtained from Charles River (Germany). Upon arrival, animals were group housed (n=6-7/group) and offered regular rodent chow (Altromin standard #1324 chow; C. Petersen, Ringsted, Denmark) and water ad libitum unless otherwise stated. • The mice were housed under a 12:12 L/D cycle (lights on at 4:00 and lights off at 16:00) and in temperature and humidity controlled rooms. • ii) Groups and Randomization • On day −4, mice were randomized according to blood glucose level (fasted; blood glucose measured on Biosen S line analyzer (EKF diagnostic, Germany) to participate in one of the following drug treatment groups (n=6): • 1) Vehicle control, S.C. (physiological saline) • 2) XG-102 (SEQ ID NO: 233); 1 mg/kg; s.c. • 3) XG-102 (SEQ ID NO: 233); 10 mg/kg; s.c • All doses listed were calculated for the free-base. Drug purity: 95.28%, peptide content: 78.0%. All compounds were administered sub-cutaneously (s.c.) in a volume of 3 ml/kg. The formulation instructions for vehicle control and XG-102 (SEQ ID NO: 233) were as follows: • First, XG-102 (SEQ ID NO: 233) was dissolved in the vehicle. The formulations (concentrations of 0.33 and 3.3 mg/ml, corresponding to the doses of 1 and 10 mg/kg, respectively) were prepared according to the procedure detailed below. Concentrations were calculated and expressed taking into account test items purity and peptide content (multiplier coefficient was 1.346). • Preparation of a stock solution: the freeze-dried test compound XG-102 (SEQ ID NO: 233) is thawed for one hour minimum and prepared as a stock solution in the vehicle at 1 mM (corresponding to 3.823 mg/mL). Aliquots are prepared for each treatment day and stored at approximately −80° C. Dilutions of this stock solution to the required concentrations are performed on each treatment day; • Storage of the stock solution: at approximately −80° C.; • Storage of the diluted preparations: at room temperature for 24 hours maximum. • Prior to solubilisation, the powder was stored at −20° C. The stability of the stock solution is 3 months at approximately −80° C.; the stability of the diluted formulations for animal dosing is 24 hours at room temperature. Unused diluted material could be stored for up to 7 days if kept at 4-8° C.
c) Experimental Procedure • Following 8 days of acclimatization the mice were treated daily at 08.00 AM for 21 days by SC dosing 8 hours prior to lights out at 04.00 PM according to the outline groups. […] Mice were stratified into two sub-teams of n=6-7 and subsequently the metabolic characterisation were performed on study days 71-72. • iii) Adipokine Panel • Groups 1+3: On three occasions (study days 57, 66 and 108) blood was collected from the tail vein using EDTA coated hematocrite tubes (100 μl). Following centrifugation of blood the plasma was collected and stored at −20° C. until measurement. Then, the following panel of adipokines/cytokines was determined using Luminex based 7-plex: leptin, resistin, MCP-1, PAI-1, TNF, insulin and interleukin-6 (IL-6). • iv) Termination • Groups 1+3 (day 111): The following organs were excised and weighed:
inguinal subcutaneous fat, epididymal fat, retroperitoneal fat, brain, liver, kidney, spleen and heart. All organs described above were samples in 4% PFA for possible future histo-pathological examination. Also, pancreas (en bloc) was sampled for possible stereological and imunohistochemical analysis, and eyes were sampled for possible later analysis of retinopathy. Group 2 (day 28): No tissues or plasma were collected.

“dqsrpvqpflnIttprkprpprrrqrrkkrg (DQSRPVQPFLNLTTPRKPRPPRRRQRRKKRG; not fully specified (some residues); printed as dqsrpvqpflnIttprkprpprrrqrrkkrg) [XG-102]” was tested, and the “body weight vs vehicle” value (1 mg/kg, 28 days of dosing) was “no effect”, the “fasting blood glucose vs vehicle” value (1 mg/kg, 28 days of dosing) was “no effect” and the “dosing time until blood glucose effect evident” value (10 mg/kg) was 14 days. The “fasting blood glucose plateau” value (10 mg/kg) was “approximately 5 mmol/L”, the “fasting blood glucose vs vehicle” value (10 mg/kg s.c. daily for 21 days, wash-out to day 111) was “clear and significant (p<0.001) decrease” and the “tissue weight of brain, spleen and heart” value (10 mg/kg, day 111) was “no significant effects”. The “tissue weight of fat pads at termination” value (10 mg/kg, day 111) was “a significant decrease of epididymal (p<0.05) and retroperitoneal (p<0.01) fat mass”, the “tissue weight of kidney and liver” value (10 mg/kg, day 111) was “a significant decrease of kidney (p<0.05) and liver (p<0.01) mass” and the “body weight vs vehicle” value (10 mg/kg, from day 28 to day 111) was “clear and significant (p<0.001) prevention of body weight increase”. For the same substance, the “general observations: sedation” value (acute dosing period) was “no signs of sedation”, the “reaction of subcutaneous tissue at injection site” value (group B (1 mg/kg s.c. daily)) was “mild nodular fibrosis was observed” and the “reaction of subcutaneous tissue at injection site” value (high dose (10 mg/kg s.c. daily), after approximately two weeks) was “nodular fibrosis was observed in the subcutaneous tissue”.

Reference: patent publication US10023615B2, “Efficient transport into white blood cells” (priority 2008, dated 2018)
